Tests used:
[1] = biological target: T1, NMDA receptor complex, [3H]TCP binding to synaptic plasma membranes (Rattus norvegicus, UniProt P35439); test: Assay B: TCP Modulation Assay (stimulation of [3H]TCP binding); conditions: for effect on glycine dose-response of [3H]TCP binding: D-cycloserine 0-100 μM
T1 construct: Triton X-100 washed synaptic plasma membranes (SPM) prepared from rat forebrain; from tissue; host or cells: rat forebrain synaptic plasma membranes (male Sprague-Dawley, 30-45 days old), Triton X-100 washed
Procedure: [^3H]TCP binding was performed using Triton X-100 washed synaptic plasma membranes (SPM) prepared from rat forebrain (30-45 day old, male SpragueDawley; Sasco, St. Charles, Mo.) as described previously [J. W. Thomas, W. F. Hood, J. B. Monahan, P. C. Contreras and T. L. O'Donohue, Brain Res., 442, 396-398 (1988)]. […] The samples were then filtered through glass fiber filters (Schleicher and Schuell #32) which were pretreated with 0.05% (v/v) polyethylenimine. The filters were washed and the radioactivity quantitated by liquid scintillation spectrometry. […] The EC50 values for the stimulation of [^3H]TCP binding were determined using a four parameter logistic regression analysis.

[2] = test system: patients with post-traumatic memory impairment; test: Assay C: Post-Traumatic Memory Impairment Study (WMS and MAS); format: in vivo, human; parameters: MAS Visual Memory score, least-square mean corrected for baseline / MAS Visual Memory, mean change from baseline / WMS Logical Memory score, mean / WMS Visual Reproduction score, mean / MAS Visual Memory score, mean / MAS Short Term Memory score, mean / MAS Verbal Memory score, mean: scale not given here
Procedure: The primary objective of this pilot study was to assess in patients with post-traumatic memory impairment: 1) The effect of a single 15 mg dose of cycloserine using the Wechsler Memory Scale (WMS) [D. Wechsler, Wechsler Memory Scale, Manual., Psychological Corporation, New York (1945)]; and 2) The effect of 5 multiple doses of 15 mg of cycloserine over 72 hours using the Memory Assessment Scales (MAS) [J. M Williams, The Memory Assessment Scales., Pyschological Assessment Resources, Odessa, Fla. (1991)]. The secondary objective of this study was to evaluate the safety of cycloserine in patients with traumatic brain injury.
The study was conducted by six investigators at six investigational sites in the United States. This was a multicenter, randomized, doubleblind, parallel group, placebo-controlled study in headtrauma patients who were experiencing significant memory disorder. Patients were randomized to receive placebo or 15 mg doses of cycloserine for a total of five equally spaced doses (morning and evening) over a 72-hour period. Safety and efficacy measurements were obtained at the screening and on Days 1 through 4 of the study. A sufficient number of patients were enrolled in the study to assure that 60 evaluable patients (30 in the cycloserine treatment group and 30 in the placebo treatment group) would complete the study.
Patients considered for enrollment were to have sustained closed head injury (ICD-9-CM#800) and post-traumatic memory impairment established by clinical examination supported by the Hahnemann Orientation and Memory Examination (HOME) [J. M. Williams, In: C. J. Long, L. Ross and M. Mutchnick, eds. Traumatic Brain Injury, Plenum, N.Y. (1990)]. The Anterograde Amnesia score was to be between 0 and 21 inclusive and the patient was to have sufficient cognitive recovery to complete the Hahnemann Memory Screening Test (MST) with a score of at least 9 [J. M. Williams, Ibid.]. Patients were to be at least 18 years of age, weighing between 40 and 100 kg, and female patients could not be at risk of pregnancy. Patients were to have a stable medical condition following the traumatic injury and be judged by the investigator to have adequate nutritional status. [Patients could have other traumatic injuries provided they were under treatment and there was no clinically significant infection or general sepsis.]
Criteria for exclusion from the study included current or history of significant systemic disorder, brain disorder, or any neurological disorder with cognitive implications other than traumatic brain injury (e.g., brain tumor). Also excluded were patients with current or history of diagnosed epilepsy or documented convulsions, or clinically significant abnormalities of thyroid function, folic acid or B12. Clinically significant cardiovascular, renal, pulmonary, hepatic, gastrointestinal, infectious or hematological illness could preclude patient participation in the study (judgment of the Investigator). Concomitant medication, or medication given within seven days prior to the start of the study could preclude patient participation in the study (judgment of the Investigator and/or Clinical Monitor). Inability to follow study procedures, poor comprehension of study language, uncorrectable loss of hearing or eyesight which would interfere with study participation excluded patients from the study. Patients who had received an acridine derivative within 90 days prior to enrollment or another investigational drug within 30 days enrollment or who were known to have a hypersensitivity to cycloserine or related compounds were also excluded. This study also excluded patients taking or expected to take Hydergine, cerebral vasodilators, nootropics, choline, lecithin or amino acids. Clinically significant laboratory values outside the normal range or previous admission to the study excluded patients from participation in the study.
All study medication was provided by G. D. Searle & Co., Skokie, Ill. […]

[3] = test system: normal young and elderly human volunteers; conditions: single oral doses of 5 and 15 mg; cited from earlier work
elderly population = conditions: absence of scopolamine, single oral doses of 5 and 15 mg; cited from earlier work
[4] = test system: mentally disturbed patients; conditions: 500 mg per day; cited from earlier work

## NC1CONC1=O (single isomer, unassigned) [D-cycloserine, 4-amino-3-isoxazolidone]
[1]; glycine concentrations 0.1-15 μM
  effect on glycine dose-response of [3H]TCP binding: rightward shift in the dose-response curve
[1]; glycine concentrations below 0.1 μM
  effect on glycine dose-response of [3H]TCP binding: potentiated the glycine stimulation
[1]; in the presence of glycine 0.1-0.6 μM
  effect on glycine stimulation of [3H]TCP binding: reduces the maximal level of glycine stimulation
[2]; Baseline
  MAS Short Term Memory score, mean: 81.7
  MAS Verbal Memory score, mean: 78.2
  MAS Visual Memory score, mean: 77.2
[2]; Baseline, prior to first dose
  WMS Logical Memory score, mean: 8.88
  WMS Visual Reproduction score, mean: 8.70
[2]; Day 2, after one 15 mg dose
  WMS Logical Memory score, mean: 8.24
  WMS Visual Reproduction score, mean: 8.42
[2]; Day 2, one dose, p=0.59
  WMS Visual Reproduction score corrected for baseline versus placebo: did not differ significantly
[2]; Day 2, one dose, p=0.72
  WMS Logical Memory score corrected for baseline versus placebo: did not differ significantly
[2]; Day 4, after five 15 mg doses
  MAS Short Term Memory score, mean: 85.9
  MAS Verbal Memory score, mean: 75.8
  MAS Visual Memory score, mean: 85.5
[2]; Day 4, five 15 mg doses, placebo 78.7
  MAS Visual Memory score, least-square mean corrected for baseline: 87.5
[2]; Day 4, five 15 mg doses, placebo −1.50
  MAS Visual Memory, mean change from baseline: 8.54
[2]; Day 4, p=0.023
  MAS Visual Memory score versus placebo: significantly higher
[2]; Day 4, p=0.31
  MAS Verbal Memory versus placebo: not significantly different
[2]; Day 4, p=0.72
  MAS Short Term Memory versus placebo: not significantly different
[3]
  effect on scopolamine-induced memory deficits: can ameliorate some memory deficits induced by scopolamine
Elderly population
  effect on cognitive parameters: significant positive effects on the cognitive parameters
[4]
  clinical response in mental disorders: improvements in depression, insomnia, anexoria or tension were found for some patients

## NCC(=O)O [Glycine]
[1]; 0.6 μM glycine, basal binding 2583±381 DPM
  maximum specific [3H]TCP binding: 4712±779 DPM

## c1csc(C2(N3CCCCC3)CCCCC2)c1 [[^3H]TCP]
[1]; basal conditions
  Kd: 44 nM
